The values below come from US20160046579A1, “THERAPEUTIC COMPOUNDS AND COMPOSITIONS” (AGIOS PHARMACEUTICALS, INC., priority 2013, published 2016).

Test [1] addresses T1, wt PKR (Homo sapiens, UniProt P30613). Kind of test: wt PKR cell based assay.
In test [2] the target is T1, wt PKR. In words: PKR Mutant Assay, dose response (AC50), wild type PKR enzyme. The test is classed as biochemical. To be noted: wild type PKR enzyme. As for the experimental part:
(§1) • PKR or PKR mutant enzyme solution was diluted in assay buffer. • 2 μL of test compound was added into wells first, and then 180 μL reaction mix was added. • Reactions mixture with test compound was assembled except for ADP, and plates were stored for 60 minutes at room temperature. • 20 uL ADP was added to start reaction at room temperature and reaction progress was measured as changes in absorbance at 340 nm wavelength at room temperature.
(§2) Test Compound Preparation: • Test compound stock was made at 100× concentration in 100% DMSO (10 mM) • 1 to 3 dilutions were made for 11 points (i.e. 50 μl of first concentration added to 100 μl 100% DMSO to yield 3.33 mM, 50 μl of this added to 100 μl DMSO to yield 1.11 mM, and so forth) • 1 to 100 dilution into assay (2 μl in 200 μl) yielded starting concentration of 100 μM, decreasing 3 fold for 11 points.

Test [3] concerns the target PKR R532W (Homo sapiens, UniProt P30613, R532W). In words: PKR Mutant Assay, dose response (AC50), PKR R532W. The test is classed as biochemical. To be noted: PKR R532W mutant enzyme. As for the experimental part:
as §1, §2

Test [4] concerns the target PKR R510Q (Homo sapiens, UniProt P30613, R510Q). In words: PKR Mutant Assay, dose response (AC50), PKR R510Q. It is filed as biochemical. To be noted: PKR R510Q mutant enzyme. As for the experimental part:
as §1, §2

Bounds are passed on as bounds.

Chain of PKR R510Q (P30613 whole entry R510Q): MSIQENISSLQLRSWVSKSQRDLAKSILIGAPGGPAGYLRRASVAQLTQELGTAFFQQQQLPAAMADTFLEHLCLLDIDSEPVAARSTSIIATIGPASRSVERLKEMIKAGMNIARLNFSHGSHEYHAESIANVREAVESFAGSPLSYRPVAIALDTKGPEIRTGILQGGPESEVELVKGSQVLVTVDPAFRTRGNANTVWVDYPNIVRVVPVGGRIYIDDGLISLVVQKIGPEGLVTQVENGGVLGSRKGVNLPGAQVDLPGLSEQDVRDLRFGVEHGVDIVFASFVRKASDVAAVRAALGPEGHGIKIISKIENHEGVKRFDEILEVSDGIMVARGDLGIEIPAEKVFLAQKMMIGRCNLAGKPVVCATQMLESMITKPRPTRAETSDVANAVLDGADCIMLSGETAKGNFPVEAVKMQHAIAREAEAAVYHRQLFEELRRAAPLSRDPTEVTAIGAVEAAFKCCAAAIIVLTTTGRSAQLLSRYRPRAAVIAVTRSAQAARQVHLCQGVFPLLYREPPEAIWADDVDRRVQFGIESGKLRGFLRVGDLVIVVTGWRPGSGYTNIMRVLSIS
Chain of PKR R532W (P30613 whole entry R532W): as the sequence (P30613 whole entry R510Q) above, with Q510R, R532W counted along it
T1 sequence (P30613 whole entry): as the sequence (P30613 whole entry R510Q) above, with Q510R counted along it

`O=C(c1ccc(NS(=O)(=O)c2cccc3nccnc23)cc1)N1CCC(O)(Cc2cc[nH]n2)CC1` [Compound 500, N-(4-(4-((1H-pyrazol-3-yl)methyl)-4-hydroxypiperidine-1-carbonyl)phenyl)quinoxaline-5-sulfonamide]: the AC50 in test [1] lay in the range of 101 to 1000 nM; in test [2], 101 to 1000 nM; in test [3], 101 to 1000 nM; in test [4], 1010 to 10000 nM.

Turning to `Cc1n[nH]c(C)c1CC1(O)CCN(C(=O)c2ccc(NS(=O)(=O)c3cccc4nccnc34)cc2)CC1` [Compound 512, N-(4-(4-((3,5-dimethyl-1H-pyrazol-4-yl)methyl)-4-hydroxypiperidine-1-carbonyl)phenyl)quinoxaline-5-sulfonamide], the AC50 in test [1] was 101 to 1000 nM; in test [2], less than 100 nM; in test [3], less than 100 nM; in test [4], 101 to 1000 nM.

Consider `CC(F)(F)CCC1(O)CCN(C(=O)c2ccc(NS(=O)(=O)c3cccc4scnc34)cc2OC(F)F)CC1` [Compound 473, N-(4-(4-(3,3-difluorobutyl)-4-hydroxypiperidine-1-carbonyl)-3-(difluoromethoxy)phenyl)benzo[d]thiazole-4-sulfonamide], for which the AC50 is 101 to 1000 nM in test [1], less than 100 nM in test [2], less than 100 nM in test [3] and 101 to 1000 nM in test [4].

Turning to `CC(F)(F)CCC1(O)CCN(C(=O)c2ccc(NS(=O)(=O)c3cc(F)cc4sc(N)nc34)cc2C#N)CC1` [Compound 491, 2-amino-N-(3-cyano-4-(4-(3,3-difluorobutyl)-4-hydroxypiperidine-1-carbonyl)phenyl)-6-fluorobenzo[d]thiazole-4-sulfonamide], the AC50 in test [1], in test [2], in test [3] and in test [4] was 101 to 1000 nM throughout.

On to `Cc1cc(C2(O)CCN(C(=O)c3ccc(NS(=O)(=O)c4cccc5scnc45)cc3)CC2)sn1` [Compound 479], for which the AC50 in test [1] was 101 to 1000 nM; in test [2] it was less than 100 nM; in test [3], less than 100 nM; in test [4], 101 to 1000 nM.

`Nc1cnc2c(S(=O)(=O)Nc3ccc(C(=O)N4CCC(O)(c5cccc(F)c5F)CC4)cc3)cccc2n1` [Compound 493, 2-amino-N-(4-(4-(2,3-difluorophenyl)-4-hydroxypiperidine-1-carbonyl)phenyl)quinoxaline-5-sulfonamide]: the AC50 in test [1], in test [2], in test [3] and in test [4] was less than 100 nM throughout.

As for `O=C(c1ccc(NS(=O)(=O)c2cccc3nccnc23)cc1)N1CCC(O)(Cc2c(O)n[nH]c2C(F)(F)F)CC1` [Compound 523], the AC50 lay within 101 to 1000 nM in test [1], 101 to 1000 nM in test [2], 101 to 1000 nM in test [3] and 1010 to 10000 nM in test [4].

In general, AC50 refers to the concentration giving half of the maximal activity seen. Read a low AC50 as greater potency.
